Structures can show the parent of a compound that is named as a salt. Where two headings read alike, the source gives them in different places.
System: MAI
Experiment: antibiotic sensitivity (MIC) of MAI strains, paraffin slide culture and microliter assays
Type: cell-based, Mycobacterium avium-intracellulare
Set-up: key: NG: No Growth
Source text: The present invention has met the above-described need. In one embodiment, it provides a method of automatically testing the sensitivity of a paraffinophilic microorganism to different antimicrobial agents, such as antibiotics, and concentrations thereof, by providing a plurality of receptacles, each containing an amount of liquid medium, an antimicrobial agent to be tested and the microorganism to be tested. In each of the receptacles is placed a slide containing a paraffin source. The receptacles are then incubated, after which a light scatter sensing means automatically and sequentially monitors the extent of microorganism growth on the slides. The extent of colony growth is employed to determine which antimicrobial agent in which concentration is effective to resist growth of the microorganism. A preferred light scatter sensing means is a nephelometer.
Referring specifically to FIG. 1, there is shown a preferred embodiment of the present invention usable in a method of automatically testing the sensitivity of a pure culture of a microorganism to different antimicrobial agents and concentrations thereof. In this embodiment, a microorganism, which may have been previously speciated as by the technique taught in U.S. Pat. No. 5,153, 119, has been introduced into a plurality of receptacles, each containing an amount of liquid medium and antimicrobial agent to be tested. A paraffin slide is introduced into each of the receptacles which are subsequently incubated. The receptacles 2-22 (even numbers only) are fixedly secured to an elongated, substantially rigid movable carrier member 26, such that the receptacles 2-22 will be translated therewith in the direction shown by the arrow A. The carrier member 26 may be made of any suitable material, such as aluminum, steel, stainless steel, or resinous plastic, for example. The receptacles 2-22, respectively, contain slides 32-52 (even numbers only). The slides 32-52 are fixedly secured, respectively, within receptacles 2-22 which may test tubes. The slides 32-52 are generally oriented so as to have their elongated direction aligned with the direction of travel of the carrier 26. As the carrier moves in the direction of arrow A, the slides 2-22 will sequentially be positioned in operative relationship to the light scatter sensing means which consists of light source 60, which directs a light beam toward light detector 62. In the preferred embodiment, a beam of visible light from light source 60 will impinge upon slide 32, with the growth of the microorganism thereon producing a corresponding scatter of light which is received by the light receiving sensor 62 and converts the received light into an appropriate output electrical signal which will be delivered to computer means 64. The computer means 64, in turn, provides output to output means 66, which may conveniently be a display, such as a cathode ray tube or a hard copy printer, for example. The degree of light scatter will be related to the extent of microorganism growth with light scatter increasing as growth on the slide increases.
The computer means 64 may be a general purpose digital microprocessor. It may be programmed in a manner readily known to those skilled in the art to sequentially compare the light scatter value of each slide 32-52 with that of a control slide and to provide an output to output means 66, such as a visual screen display or hard copy, with or without prior enhancement, which indicates the difference between the control slide and the specific slides containing the same pure culture of a paraffinophilic microorganism, but exposed to different concentrations of different or the same antimicrobial agents, such an antibiotics. In this manner, there is provided the minimal concentration level of a specific antimicrobial agent that must be used to control growth of the microorganism. Also, the minimum bactericidal concentration may be determined. […]

O=C(O)c1cn(C2CC2)c2cc(N3CCNCC3)c(F)cc2c1=O [ciprofloxacin-HCl]
Days to Confluency (Exp. Series II, strain 1): 9 days
Days to Confluency (Exp. Series II, strain 2): 9 days
Days to Confluency (Exp. Series II, strain 3): NG
MIC (Exp. Series II, strain 3): NG
Days to Confluency (Exp. Series II, strain 4): 10 days
Days to Confluency (Exp. Series II, strain 5): 9 days
Days to Confluency (Exp. Series II, strain 6): 10 days
Days to Confluency (Exp. Series II, strain 7): 10 days
Days to Confluency (Exp. Series II, strain 8): 9 days
Days to Confluency (Exp. Series II, strain 9): 10 days
Days to Confluency (Exp. Series II, strain 10): 7 days
Days to Confluency (Exp. Series II, strain 11): 7 days
Days to Confluency (Exp. Series II, strain 12): 7 days
Days to Confluency (Exp. Series II, strain 13): 8 days
Days to Confluency (Exp. Series II, strain 14): 7 days
Days to Confluency (Exp. Series II, strain 15): 7 days
Days to Confluency (Exp. Series II, strain 16): 7 days
Days to Confluency (Exp. Series III, strain 1): 7 days
Days to Confluency (Exp. Series III, strain 2): 8 days
Days to Confluency (Exp. Series III, strain 3): 8 days
Days to Confluency (Exp. Series III, strain 4): 9 days
Days to Confluency (Exp. Series III, strain 5): 8 days
Days to Confluency (Exp. Series III, strain 6): 9 days
Days to Confluency (Exp. Series III, strain 7): 8 days
Days to Confluency (Exp. Series III, strain 8): 8 days
Days to Confluency (Exp. Series III, strain 9): 8 days
Days to Confluency (Exp. Series III, strain 10): 6 days
Days to Confluency (Exp. Series III, strain 11): 6 days
Days to Confluency (Exp. Series III, strain 12): 6 days
Days to Confluency (Exp. Series III, strain 13): 7 days
Days to Confluency (Exp. Series III, strain 14): 7 days
Days to Confluency (Exp. Series III, strain 15): 7 days
Days to Confluency (Exp. Series III, strain 16): 6 days
MIC (Mycobacterium avium-intracellulare, Exp. Series II, strain 1, read-out: MIC): 3.6 µg/mL
MIC (Mycobacterium avium-intracellulare, Exp. Series II, strain 2, read-out: MIC): 18.2 µg/mL
MIC (Mycobacterium avium-intracellulare, Exp. Series II, strain 4, read-out: MIC): 3.6 µg/mL
MIC (Mycobacterium avium-intracellulare, Exp. Series II, strain 5, read-out: MIC): 7.3 µg/mL
MIC (Mycobacterium avium-intracellulare, Exp. Series II, strain 6, read-out: MIC): 3.6 µg/mL
MIC (Mycobacterium avium-intracellulare, Exp. Series II, strain 7, read-out: MIC): 3.6 µg/mL
MIC (Mycobacterium avium-intracellulare, Exp. Series II, strain 8, read-out: MIC): 3.6 µg/mL
MIC (Mycobacterium avium-intracellulare, Exp. Series II, strain 9, read-out: MIC): 3.6 µg/mL
MIC (Mycobacterium avium-intracellulare, Exp. Series II, strain 10, read-out: MIC): 14.5 µg/mL
MIC (Mycobacterium avium-intracellulare, Exp. Series II, strain 11, read-out: MIC): 7.3 µg/mL
MIC (Mycobacterium avium-intracellulare, Exp. Series II, strain 12, read-out: MIC): 10.9 µg/mL
MIC (Mycobacterium avium-intracellulare, Exp. Series II, strain 13, read-out: MIC): 18.2 µg/mL
MIC (Mycobacterium avium-intracellulare, Exp. Series II, strain 14, read-out: MIC): 18.2 µg/mL
MIC (Mycobacterium avium-intracellulare, Exp. Series II, strain 15, read-out: MIC): 7.3 µg/mL
MIC (Mycobacterium avium-intracellulare, Exp. Series II, strain 16, read-out: MIC): 7.3 µg/mL
MIC (Mycobacterium avium-intracellulare, Exp. Series III, strain 1, read-out: MIC): 3.6 µg/mL
MIC (Mycobacterium avium-intracellulare, Exp. Series III, strain 2, read-out: MIC): 14.5 µg/mL
MIC (Mycobacterium avium-intracellulare, Exp. Series III, strain 3, read-out: MIC): 3.6 µg/mL
MIC (Mycobacterium avium-intracellulare, Exp. Series III, strain 4, read-out: MIC): 3.6 µg/mL
MIC (Mycobacterium avium-intracellulare, Exp. Series III, strain 5, read-out: MIC): 7.3 µg/mL
MIC (Mycobacterium avium-intracellulare, Exp. Series III, strain 6, read-out: MIC): 7.3 µg/mL
MIC (Mycobacterium avium-intracellulare, Exp. Series III, strain 7, read-out: MIC): 7.3 µg/mL
MIC (Mycobacterium avium-intracellulare, Exp. Series III, strain 8, read-out: MIC): 3.6 µg/mL
MIC (Mycobacterium avium-intracellulare, Exp. Series III, strain 9, read-out: MIC): 3.6 µg/mL
MIC (Mycobacterium avium-intracellulare, Exp. Series III, strain 10, read-out: MIC): 14.5 µg/mL
MIC (Mycobacterium avium-intracellulare, Exp. Series III, strain 11, read-out: MIC): 7.3 µg/mL
MIC (Mycobacterium avium-intracellulare, Exp. Series III, strain 12, read-out: MIC): 7.3 µg/mL
MIC (Mycobacterium avium-intracellulare, Exp. Series III, strain 13, read-out: MIC): > 18.2 µg/mL
MIC (Mycobacterium avium-intracellulare, Exp. Series III, strain 14, read-out: MIC): 14.5 µg/mL
MIC (Mycobacterium avium-intracellulare, Exp. Series III, strain 15, read-out: MIC): 7.3 µg/mL
MIC (Mycobacterium avium-intracellulare, Exp. Series III, strain 16, read-out: MIC): 3.6 µg/mL
